Measured values from ChEMBL document CHEMBL1123013, “Synthesis and neuroleptic activity of 3-(1-substituted-4-piperidinyl)-1,2-benzisoxazoles” (J Med Chem, 1985).

Tested on: Dopamine receptor
Assay: Ability to inhibit the binding of [3H]spiroperidol in rat striatal tissue; ND=assay not performed due to solubility problems.
Assay type: tissue-based, Striatum
Details: not given

| SMILES | IC50 |
| --- | --- |
| Oc1nc2ccccc2n1CCCN1CCC(c2noc3ccccc23)CC1 | Insoluble |

Organism: Mus musculus
Assay: animal or person
Details: ip
Description: Neuroleptic activity in vivo by ability to antagonise climbing in apomorphine dosed mice after intraperitoneal administration.

| SMILES | ED50 |
| --- | --- |
| Oc1nc2ccccc2n1CCCN1CCC(c2noc3cc(F)ccc23)CC1 | 0.09 mg/kg |
| Oc1nc2ccccc2n1CCCN1CCC(c2noc3cc(Cl)ccc23)CC1 | 0.8 mg/kg |
| COc1cc2onc(C3CCN(CCCc4noc5cc(F)ccc45)CC3)c2cc1OC | > 10 mg/kg |
| O=C(c1ccccc1)C1CCNCC1 | 1.3 mg/kg |
| Oc1ccc2onc(C3CCN(CCCC(c4ccc(F)cc4)c4ccc(F)cc4)CC3)c2c1 | > 10 mg/kg |
| Oc1nc2ccccc2n1CCCN1CCC(c2noc3cccc(F)c23)CC1 | 5.3 mg/kg |
| Fc1ccc(C(CCCN2CCC(c3noc4ccccc34)CC2)c2ccc(F)cc2)cc1 | 1.6 mg/kg |
| COc1ccc2c(C3CCN(CCCn4c(O)nc5ccccc54)CC3)noc2c1 | > 10 mg/kg |
| Cc1[nH]c2ccccc2c1CCCN1CCC(c2noc3cc(Cl)ccc23)CC1 | 4.1 mg/kg |
| Oc1nc2ccccc2n1CCCN1CCC(c2noc3ccc(F)cc23)CC1 | > 10 mg/kg |
| Fc1ccc(C(CCCN2CCC(c3noc4ccc(F)cc34)CC2)c2ccc(F)cc2)cc1 | 1.6 mg/kg |
| COc1cc2onc(C3CCN(CCCn4c(O)nc5ccccc54)CC3)c2cc1OC | > 10 mg/kg |
| Fc1ccc2c(CCCN3CCC(c4noc5cc(Cl)ccc45)CC3)noc2c1 | 2 mg/kg |
| COc1ccc2onc(C3CCN(CCCC(c4ccc(F)cc4)c4ccc(F)cc4)CC3)c2c1 | > 10 mg/kg |
| COc1ccc2onc(C3CCN(CCCc4noc5cc(F)ccc45)CC3)c2c1 | 7.2 mg/kg |
| Fc1ccc2c(CCCN3CCC(c4noc5cc(F)ccc45)CC3)noc2c1 | 0.08 mg/kg |
| Cc1[nH]c2ccccc2c1CCCN1CCC(c2noc3ccc(F)cc23)CC1 | > 10 mg/kg |
| Fc1ccc2c(CCCN3CCC(c4noc5ccccc45)CC3)noc2c1 | 1.4 mg/kg |
| Cc1[nH]c2ccccc2c1CCCN1CCC(c2noc3ccc(O)cc23)CC1 | > 10 mg/kg |
| COc1cc2onc(C3CCN(CCCC(c4ccc(F)cc4)c4ccc(F)cc4)CC3)c2cc1OC | > 10 mg/kg |
| COc1cc2onc(C3CCN(CCCc4c(C)[nH]c5ccccc45)CC3)c2cc1OC | > 10 mg/kg |
| Cc1[nH]c2ccccc2c1CCCN1CCC(c2noc3ccccc23)CC1 | 1.1 mg/kg |
| COc1ccc2onc(C3CCN(CCCc4c(C)[nH]c5ccccc45)CC3)c2c1 | > 10 mg/kg |
